Measured values as given in patent US11000033B2, “Ketone or oxime compound, and herbicide” (NISSAN CHEMICAL CORPORATION, priority 2014, dated 2021).

Key:
Type in all cases: in vivo
[1] = test system: Digitaria ciliaris; test: Test Example 5: herbicidal effect by foliage application, plastic box (symbol F); conditions: 320 g/ha, 3 weeks after application
Method in brief: (§1)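 Post-emergence spray; diluvial soil (sterilized), ~1.5 cm seed cover; greenhouse 25–30° C; 14-day-old plants; water-diluted emulsion at predetermined dose; visual score at 3 wk post-treatment.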

[2] = test system: wheat; test: Test Example 4: effect on crop by soil treatment (symbol e); conditions: application herbicide amount 320 g/ha
Method in brief: (§2)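 Plants are raised in a greenhouse (25° C. to 30° C.) from spot-sown seed, which sits under about 1.5 cm of sterilized diluvial soil in a box shared with weed species.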

[3] = test system: Setaria viridis; test: Test Example 4: herbicidal effect by soil treatment (symbol G); conditions: application herbicide amount 320 g/ha
Method in brief: (§3)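 Seeds were sown in sterilized diluvial soil, covered with about 1.5 cm of soil, and the soil surface was sprayed with a water-diluted emulsion of the compound at a predetermined rate. Plants grew in a greenhouse at 25° C. to 30° C.; effects were scored visually 3 weeks after application.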

[4] = test system: rice; test: Test Example 4: effect on crop by soil treatment (symbol b); conditions: application herbicide amount 320 g/ha
Method in brief: as §2

[5] = test system: Apera spica-venti; test: Test Example 5: herbicidal effect by foliage application, plastic box (symbol L); conditions: 320 g/ha, 3 weeks after application
Method in brief: as §1

[6] = test system: rapeseed; test: Test Example 5: effect on crop by foliage application, plastic box (symbol g); conditions: 320 g/ha, 3 weeks after application
Method in brief: (§4)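 Plants were raised from seed in a greenhouse (25° C. to 30° C.) after sowing in a plastic box of sterilized diluvial soil.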

[7] = test system: corn; test: Test Example 4: effect on crop by soil treatment (symbol c); conditions: application herbicide amount 320 g/ha
Method in brief: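 Sterilized diluvial soil, spot sowing, ~1.5 cm soil cover; greenhouse 25–30° C.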

[8] = test system: Echinochloa crus-galli var. crus-galli; test: Test Example 3: herbicidal effect by foliage application, Wagner pot (symbol H); conditions: application herbicide amount 320 g/ha
Method in brief: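 The compound, formulated as an emulsion and diluted with water to a predetermined rate, is applied uniformly to leaves of two-week-old seedlings growing in submerged alluvial soil at 25–30 °C. Rice is included. Each plant is assessed 3 weeks later using defined criteria.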

[9] = test system: Echinochloa crus-galli var. crus-galli; test: Test Example 4: herbicidal effect by soil treatment (symbol H); conditions: application herbicide amount 320 g/ha
Method in brief: as §3

[10] = test system: soybean; test: Test Example 5: effect on crop by foliage application, plastic box (symbol d); conditions: 320 g/ha, 3 weeks after application
Method in brief: as §4

[11] = test system: Alopecurus myosuroides; test: Test Example 4: herbicidal effect by soil treatment (symbol J); conditions: application herbicide amount 320 g/ha
Method in brief: as §3

[12] = test system: corn; test: Test Example 5: effect on crop by foliage application, plastic box (symbol c); conditions: 320 g/ha, 3 weeks after application
Method in brief: as §4

[13] = test system: Scirpus juncoides; test: Test Example 1: herbicidal activity, application before weed generation in submerged conditions (symbol B); conditions: application herbicide amount 320 g/ha
Method in brief: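 Pre-emergence, paddy conditions: emulsifiable formulation diluted in water, dosed onto floodwater (4 cm depth) on sowing day. Alluvial soil; weeds sown mixed; rice transplanted at 2.5-leaf stage. Greenhouse 25–30 °C, 3 wk. Score 0–5 (5 = ≥90% kill, 0 = ≤5%).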

[14] = test system: Lolium multiflorum Lam.; test: Test Example 4: herbicidal effect by soil treatment (symbol K); conditions: application herbicide amount 320 g/ha
Method in brief: as §3

[15] = test system: wheat; test: Test Example 5: effect on crop by foliage application, plastic box (symbol e); conditions: 320 g/ha, 3 weeks after application
Method in brief: as §4

Compound	F: Digitaria ciliaris, herbicidal effect grade [1]	e (wheat) effect on crop grade [2]	G (Setaria viridis) herbicidal effect grade [3]	b (directly sowed rice plant) effect on crop grade [4]	L: Apera spica-venti, herbicidal effect grade [5]	g: rapeseed, effect on crop grade [6]	c (corn) effect on crop grade [7]	herbicidal effect on H (Echinochloa crus-galli var. crus-galli), grade 0-5 [8]	H (Echinochloa crus-galli var. crus-galli) herbicidal effect grade [9]	d: soybean, effect on crop grade [10]	J (Alopecurus myosuroides) herbicidal effect grade [11]	c: corn, effect on crop grade [12]	Herbicidal effect grade, B: Scirpus juncoides [13]	K (Lolium multiflorum Lam.) herbicidal effect grade [14]	e: wheat, effect on crop grade [15]
CC(CC1CC(O)=C(c2c(C)cc(C)cc2C)C1=O)=NOCC(F)(F)F (stereo not drawn) [1-028]	5 (Herbicidal ratio of 90% or more (almost completely withered))	4 (Herbicidal ratio of 70% or higher and lower than 90%)	5 (Herbicidal ratio of 90% or more (almost completely withered))	5 (Herbicidal ratio of 90% or more (almost completely withered))	5 (Herbicidal ratio of 90% or more (almost completely withered))	4 (Herbicidal ratio of 70% or higher and lower than 90%)	0 (Herbicidal ratio of 5% or lower (almost no effect))	5 (Herbicidal ratio of 90% or more (almost completely withered))	5 (Herbicidal ratio of 90% or more (almost completely withered))	2 (Herbicidal ratio of 20% or higher and lower than 40%)	5 (Herbicidal ratio of 90% or more (almost completely withered))	4 (Herbicidal ratio of 70% or higher and lower than 90%)	5 (Herbicidal ratio of 90% or more (almost completely withered))	5 (Herbicidal ratio of 90% or more (almost completely withered))	3 (Herbicidal ratio of 40% or higher and lower than 70%)
CC(CC1CC(O)=C(c2c(C)cc(C)cc2C)C1=O)=NOCC1CC1 (stereo not drawn) [1-024]	5 (Herbicidal ratio of 90% or more (almost completely withered))	4 (Herbicidal ratio of 70% or higher and lower than 90%)	3 (Herbicidal ratio of 40% or higher and lower than 70%)	5 (Herbicidal ratio of 90% or more (almost completely withered))	5 (Herbicidal ratio of 90% or more (almost completely withered))	4 (Herbicidal ratio of 70% or higher and lower than 90%)	1 (Herbicidal ratio of 5% or higher and lower than 20%)	5 (Herbicidal ratio of 90% or more (almost completely withered))	5 (Herbicidal ratio of 90% or more (almost completely withered))	2 (Herbicidal ratio of 20% or higher and lower than 40%)	5 (Herbicidal ratio of 90% or more (almost completely withered))	5 (Herbicidal ratio of 90% or more (almost completely withered))	5 (Herbicidal ratio of 90% or more (almost completely withered))	5 (Herbicidal ratio of 90% or more (almost completely withered))	5 (Herbicidal ratio of 90% or more (almost completely withered))
CC(CC1CC(O)=C(c2c(C)cc(C)cc2C)C1=O)=NOCc1ccccc1F (stereo not drawn) [1-026]	5 (Herbicidal ratio of 90% or more (almost completely withered))	2 (Herbicidal ratio of 20% or higher and lower than 40%)	5 (Herbicidal ratio of 90% or more (almost completely withered))	4 (Herbicidal ratio of 70% or higher and lower than 90%)	5 (Herbicidal ratio of 90% or more (almost completely withered))	4 (Herbicidal ratio of 70% or higher and lower than 90%)	0 (Herbicidal ratio of 5% or lower (almost no effect))	5 (Herbicidal ratio of 90% or more (almost completely withered))	5 (Herbicidal ratio of 90% or more (almost completely withered))	0 (Herbicidal ratio of 5% or lower (almost no effect))	5 (Herbicidal ratio of 90% or more (almost completely withered))	3 (Herbicidal ratio of 40% or higher and lower than 70%)	5 (Herbicidal ratio of 90% or more (almost completely withered))	5 (Herbicidal ratio of 90% or more (almost completely withered))	2 (Herbicidal ratio of 20% or higher and lower than 40%)
CON=C(C)C(C)C1CC(O)=C(c2c(C)cc(C)cc2C)C1=O (stereo not drawn) [1-032]	5 (Herbicidal ratio of 90% or more (almost completely withered))	5 (Herbicidal ratio of 90% or more (almost completely withered))	5 (Herbicidal ratio of 90% or more (almost completely withered))	5 (Herbicidal ratio of 90% or more (almost completely withered))	5 (Herbicidal ratio of 90% or more (almost completely withered))	4 (Herbicidal ratio of 70% or higher and lower than 90%)	4 (Herbicidal ratio of 70% or higher and lower than 90%)	5 (Herbicidal ratio of 90% or more (almost completely withered))	5 (Herbicidal ratio of 90% or more (almost completely withered))	4 (Herbicidal ratio of 70% or higher and lower than 90%)	5 (Herbicidal ratio of 90% or more (almost completely withered))	5 (Herbicidal ratio of 90% or more (almost completely withered))	5 (Herbicidal ratio of 90% or more (almost completely withered))	5 (Herbicidal ratio of 90% or more (almost completely withered))	5 (Herbicidal ratio of 90% or more (almost completely withered))
CON=C(C)CC1CC(OC(=O)C2(C)CC2(Cl)Cl)=C(c2c(C)cc(C)cc2C)C1=O (stereo not drawn) [1-036]	5 (Herbicidal ratio of 90% or more (almost completely withered))	3 (Herbicidal ratio of 40% or higher and lower than 70%)	5 (Herbicidal ratio of 90% or more (almost completely withered))	5 (Herbicidal ratio of 90% or more (almost completely withered))	5 (Herbicidal ratio of 90% or more (almost completely withered))	4 (Herbicidal ratio of 70% or higher and lower than 90%)	3 (Herbicidal ratio of 40% or higher and lower than 70%)	5 (Herbicidal ratio of 90% or more (almost completely withered))	5 (Herbicidal ratio of 90% or more (almost completely withered))	4 (Herbicidal ratio of 70% or higher and lower than 90%)	5 (Herbicidal ratio of 90% or more (almost completely withered))	1 (Herbicidal ratio of 5% or higher and lower than 20%)	4 (Herbicidal ratio of 70% or higher and lower than 90%)	5 (Herbicidal ratio of 90% or more (almost completely withered))	5 (Herbicidal ratio of 90% or more (almost completely withered))
